From US8044069B2, “Compounds as calcium channel blockers” (Abbott Laboratories, priority 2008, dated 2011)

What follows are molecules tested against human Cav2.2 (Homo sapiens, UniProt Q00975) (assay: Assessment of calcium channel activity using FLIPR (Ca2+ influx in IMR32 cells)). Settings: IMR32 cells endogenously expressing human Cav2.2; 60 minute pre-incubation; 2 μM nifedipine; depolarized with 80 mM KCl, 5 mM CaCl2.
Format: cell-based
Experimental: (i) In Vitro Methods—Assessment of Calcium Channel Activity Using FLIPR:
The IMR32 cells were maintained in MEM media containing 10% (v/v) FBS, 1% (v/v) antibiotic/antimitotic, 1% (v/v) sodium pyruvate and 1% (v/v) MEM NEAA. Following dissociation in 0.05% (v/v) trypsin/EDTA, cells were seeded into black 1×96-well plates (Corning Cellbind) at a density of 1-1.2×10^5 cells/well and incubated in the maintenance media above for 48 hours at 37° C. […] After dye loading and a subsequent 60 minute pre-incubation with compounds (full log dilutions from 10 μM to 0.1 nM) in the presence of 1.3 mM CaCl2 and 2 μM nifedipine to block endogenous L-type channels, the external Ca^2+ concentration was increased to 5 mM CaCl2 and the cells concomitantly depolarized with 80 mM KCl to assay channel activity. To determine the IC50 values, the percent inhibition of the compound at each concentration was determined relative to the activity in the absence of inhibitor, and data was fitted using non-linear regression sigmoidal dose response curve analysis with GraphPad Prism®.

human Cav2.2, sequence (Q00975 whole entry): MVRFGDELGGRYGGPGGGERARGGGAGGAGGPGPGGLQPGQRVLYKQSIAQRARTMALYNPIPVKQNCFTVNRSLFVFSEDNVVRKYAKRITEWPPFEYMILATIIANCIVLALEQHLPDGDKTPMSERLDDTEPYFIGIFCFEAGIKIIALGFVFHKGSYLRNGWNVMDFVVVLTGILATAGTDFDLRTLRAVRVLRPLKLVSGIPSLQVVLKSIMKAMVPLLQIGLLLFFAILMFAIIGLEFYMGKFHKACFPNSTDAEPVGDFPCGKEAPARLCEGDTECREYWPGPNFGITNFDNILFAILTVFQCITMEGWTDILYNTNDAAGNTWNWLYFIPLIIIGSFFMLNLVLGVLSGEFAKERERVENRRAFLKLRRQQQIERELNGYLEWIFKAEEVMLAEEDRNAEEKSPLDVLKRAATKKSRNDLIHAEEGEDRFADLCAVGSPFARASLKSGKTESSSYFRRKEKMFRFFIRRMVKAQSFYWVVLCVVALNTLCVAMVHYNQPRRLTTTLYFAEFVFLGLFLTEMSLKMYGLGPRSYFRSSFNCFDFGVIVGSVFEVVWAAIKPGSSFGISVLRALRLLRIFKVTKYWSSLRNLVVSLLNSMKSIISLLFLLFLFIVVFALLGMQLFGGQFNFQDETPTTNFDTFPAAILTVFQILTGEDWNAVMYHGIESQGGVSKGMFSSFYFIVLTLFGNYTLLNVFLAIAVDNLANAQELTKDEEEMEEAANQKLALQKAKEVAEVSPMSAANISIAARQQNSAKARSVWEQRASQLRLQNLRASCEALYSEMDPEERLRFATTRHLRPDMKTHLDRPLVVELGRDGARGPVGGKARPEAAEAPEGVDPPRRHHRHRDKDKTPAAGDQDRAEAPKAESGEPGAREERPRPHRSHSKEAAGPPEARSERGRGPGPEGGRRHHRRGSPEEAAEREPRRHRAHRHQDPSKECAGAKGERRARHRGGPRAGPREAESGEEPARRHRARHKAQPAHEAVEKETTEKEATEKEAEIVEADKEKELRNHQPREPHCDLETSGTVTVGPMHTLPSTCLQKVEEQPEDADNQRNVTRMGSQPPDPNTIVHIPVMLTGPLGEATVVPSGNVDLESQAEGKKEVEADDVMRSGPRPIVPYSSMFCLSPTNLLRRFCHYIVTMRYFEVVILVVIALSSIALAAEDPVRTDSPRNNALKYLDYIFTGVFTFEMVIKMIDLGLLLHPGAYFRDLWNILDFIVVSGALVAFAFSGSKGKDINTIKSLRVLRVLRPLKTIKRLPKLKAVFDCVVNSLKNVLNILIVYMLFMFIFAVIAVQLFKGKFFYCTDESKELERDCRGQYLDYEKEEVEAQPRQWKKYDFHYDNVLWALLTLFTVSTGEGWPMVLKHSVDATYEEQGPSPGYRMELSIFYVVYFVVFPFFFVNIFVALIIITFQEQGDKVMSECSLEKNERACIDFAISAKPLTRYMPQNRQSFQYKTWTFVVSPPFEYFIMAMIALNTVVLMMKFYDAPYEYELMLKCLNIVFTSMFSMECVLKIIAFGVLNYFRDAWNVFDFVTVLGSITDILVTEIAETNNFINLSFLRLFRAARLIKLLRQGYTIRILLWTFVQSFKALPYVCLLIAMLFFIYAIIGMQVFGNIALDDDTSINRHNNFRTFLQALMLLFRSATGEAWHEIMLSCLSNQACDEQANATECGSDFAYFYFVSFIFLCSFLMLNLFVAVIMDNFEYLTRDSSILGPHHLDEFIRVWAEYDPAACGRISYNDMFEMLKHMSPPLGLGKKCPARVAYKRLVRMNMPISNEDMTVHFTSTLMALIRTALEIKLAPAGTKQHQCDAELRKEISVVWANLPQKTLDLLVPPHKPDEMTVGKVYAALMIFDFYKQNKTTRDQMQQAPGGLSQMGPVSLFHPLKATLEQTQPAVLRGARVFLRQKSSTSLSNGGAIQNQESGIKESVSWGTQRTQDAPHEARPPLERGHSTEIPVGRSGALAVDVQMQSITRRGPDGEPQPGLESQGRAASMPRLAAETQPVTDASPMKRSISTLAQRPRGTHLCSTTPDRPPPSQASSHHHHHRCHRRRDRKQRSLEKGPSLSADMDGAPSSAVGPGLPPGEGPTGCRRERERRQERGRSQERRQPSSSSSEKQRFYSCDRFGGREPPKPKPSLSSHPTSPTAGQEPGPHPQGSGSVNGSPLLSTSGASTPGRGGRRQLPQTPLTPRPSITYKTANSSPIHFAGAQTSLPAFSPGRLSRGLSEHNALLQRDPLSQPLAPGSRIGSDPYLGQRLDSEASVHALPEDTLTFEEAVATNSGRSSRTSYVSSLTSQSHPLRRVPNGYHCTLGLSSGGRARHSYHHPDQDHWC
human Cav2.2, sequence (P54289 25-951 partner limits assumed): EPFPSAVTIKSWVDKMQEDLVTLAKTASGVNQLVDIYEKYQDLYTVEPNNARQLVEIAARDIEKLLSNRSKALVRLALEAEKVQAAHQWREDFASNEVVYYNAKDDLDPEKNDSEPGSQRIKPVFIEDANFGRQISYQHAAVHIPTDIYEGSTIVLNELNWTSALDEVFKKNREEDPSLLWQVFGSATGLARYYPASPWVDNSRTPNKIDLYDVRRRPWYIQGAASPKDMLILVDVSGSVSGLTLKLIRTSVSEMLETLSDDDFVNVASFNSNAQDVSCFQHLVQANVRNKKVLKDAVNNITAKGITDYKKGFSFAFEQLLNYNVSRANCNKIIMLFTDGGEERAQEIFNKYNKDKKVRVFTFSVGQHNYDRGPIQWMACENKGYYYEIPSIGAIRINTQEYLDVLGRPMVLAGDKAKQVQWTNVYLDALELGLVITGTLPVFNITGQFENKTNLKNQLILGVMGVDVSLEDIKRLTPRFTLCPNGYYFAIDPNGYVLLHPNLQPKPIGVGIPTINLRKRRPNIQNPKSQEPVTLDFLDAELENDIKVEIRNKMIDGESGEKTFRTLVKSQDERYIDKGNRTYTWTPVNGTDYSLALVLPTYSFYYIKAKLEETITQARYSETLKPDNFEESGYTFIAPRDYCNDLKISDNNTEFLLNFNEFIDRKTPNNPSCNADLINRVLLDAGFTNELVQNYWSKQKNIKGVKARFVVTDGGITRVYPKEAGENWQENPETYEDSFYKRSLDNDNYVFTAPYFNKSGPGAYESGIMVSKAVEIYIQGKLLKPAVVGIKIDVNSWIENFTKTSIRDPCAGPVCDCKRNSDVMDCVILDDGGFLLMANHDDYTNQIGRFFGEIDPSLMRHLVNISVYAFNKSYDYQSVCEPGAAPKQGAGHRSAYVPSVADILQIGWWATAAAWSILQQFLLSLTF
human Cav2.2, sequence (P54289 952-1103 partner limits assumed): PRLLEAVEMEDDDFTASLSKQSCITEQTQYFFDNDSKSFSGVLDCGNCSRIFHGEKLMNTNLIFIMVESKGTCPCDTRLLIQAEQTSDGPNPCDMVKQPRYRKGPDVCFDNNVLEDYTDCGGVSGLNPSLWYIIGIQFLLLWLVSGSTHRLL
human Cav2.2, sequence (P54284 whole entry partner): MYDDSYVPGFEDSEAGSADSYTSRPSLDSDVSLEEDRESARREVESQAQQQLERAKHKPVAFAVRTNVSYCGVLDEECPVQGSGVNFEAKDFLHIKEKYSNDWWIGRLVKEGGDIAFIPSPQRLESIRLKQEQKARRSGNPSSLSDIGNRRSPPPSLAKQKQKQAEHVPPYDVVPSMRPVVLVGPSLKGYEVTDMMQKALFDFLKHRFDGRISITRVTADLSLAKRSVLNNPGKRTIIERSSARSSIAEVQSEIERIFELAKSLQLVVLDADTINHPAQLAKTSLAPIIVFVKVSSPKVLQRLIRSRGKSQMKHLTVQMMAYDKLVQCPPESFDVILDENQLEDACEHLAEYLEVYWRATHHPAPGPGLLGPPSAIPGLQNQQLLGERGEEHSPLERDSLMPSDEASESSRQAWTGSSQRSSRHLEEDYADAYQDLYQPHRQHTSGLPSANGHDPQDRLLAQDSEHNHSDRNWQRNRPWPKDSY

Structure (SMILES)	IC50
Cc1ccc(-c2noc(CN3CCC(c4ccccc4)(c4ccccc4)C3=O)n2)cc1 [Example 195, 1-{[3-(4-methylphenyl)-1,2,4-oxadiazol-5-yl]methyl}-3,3-diphenylpyrrolidin-2-one]	3.57 µM
O=C(CN1CCC(c2ccc(F)cc2)(c2ccc(F)cc2)C1=O)Nc1ccc(C(F)(F)F)nc1 [Example 224, 2-[3,3-bis(4-fluorophenyl)-2-oxopyrrolidin-1-yl]-N-[6-(trifluoromethyl)pyridin-3-yl]acetamide]	3.88 µM
Cc1nc(-c2ccc(C(F)(F)F)cc2)sc1CN1CCC(c2ccccc2)(c2ccccc2)C1=O [Example 156, 1-({4-methyl-2-[4-(trifluoromethyl)phenyl]-1,3-thiazol-5-yl}methyl)-3,3-diphenylpyrrolidin-2-one]	6.18 µM
O=C1N(Cc2nc(-c3cc(F)cc(F)c3)no2)CCC1(c1ccccc1)c1ccccc1 [Example 215, 1-{[3-(3,5-difluorophenyl)-1,2,4-oxadiazol-5-yl]methyl}-3,3-diphenylpyrrolidin-2-one]	6.89 µM
O=C1N(Cc2nc(-c3ccc(Br)cc3)no2)CCC1(c1ccc(F)cc1)c1ccc(F)cc1 [Example 233, 1-{[3-(4-bromophenyl)-1,2,4-oxadiazol-5-yl]methyl}-3,3-bis(4-fluorophenyl)pyrrolidin-2-one]	6.29 µM
O=C(CN1CCC(c2ccccc2)(c2ccccc2)C1=O)N1CCN(Cc2c(Cl)cccc2Cl)CC1 [Example 36, 1-{2-[4-(2,6-dichlorobenzyl)piperazin-1-yl]-2-oxoethyl}-3,3-diphenylpyrrolidin-2-one]	0.9 µM
O=C(CN1CCC(c2ccc(F)cc2)C1=O)N1CCc2ccccc2C1 (stereo not shown) [Example 253, 1-[2-(3,4-dihydroisoquinolin-2(1H)-yl)-2-oxoethyl]-3-(4-fluorophenyl)pyrrolidin-2-one]	10.6 µM
O=C(CN1CCCC(c2ccccc2)(c2ccccc2)C1=O)N1CCc2ccccc2C1 [Example 260, 1-[2-(3,4-dihydroisoquinolin-2(1H)-yl)-2-oxoethyl]-3,3-diphenylpiperidin-2-one]	7.12 µM
N#Cc1ccc(C2CN(C(=O)CN3CCCC(c4ccccc4)(c4ccccc4)C3=O)C2)cc1 [Example 241, 4-{1-[(2-oxo-3,3-diphenylpiperidin-1-yl)acetyl]azetidin-3-yl}benzonitrile]	8.96 µM
O=C1N(Cc2nc(-c3cnccc3C(F)(F)F)no2)CCC1(c1ccccc1)c1ccccc1 [Example 220, 3,3-diphenyl-1-({3-[4-(trifluoromethyl)pyridin-3-yl]-1,2,4-oxadiazol-5-yl}methyl)pyrrolidin-2-one]	1.99 µM
O=C(CN1CCC(c2ccccc2)(c2ccccc2)C1=O)N1CCOC(c2ccccc2)(c2ccccc2)C1 [Example 23, 1-[2-(2,2-diphenylmorpholin-4-yl)-2-oxoethyl]-3,3-diphenylpyrrolidin-2-one]	0.69 µM
O=C1N(Cc2nc(-c3ccc(C(F)(F)F)nc3)no2)CCC1(c1ccccc1)c1ccccc1 [Example 211, 3,3-diphenyl-1-({3-[6-(trifluoromethyl)pyridin-3-yl]-1,2,4-oxadiazol-5-yl}methyl)pyrrolidin-2-one]	3.15 µM
O=C(CN1CCC(c2ccccc2)(c2ccccc2)C1=O)N1CCCC(c2ccccc2)(c2ccccc2)C1 [Example 24, 1-[2-(3,3-diphenylpiperidin-1-yl)-2-oxoethyl]-3,3-diphenylpyrrolidin-2-one]	0.81 µM
O=C1N(Cc2nc(-c3ccc(C(F)(F)F)cc3)no2)CCC1(c1ccc(F)cc1)c1ccc(F)cc1 [Example 190, 3,3-bis(4-fluorophenyl)-1-({3-[4-(trifluoromethyl)phenyl]-1,2,4-oxadiazol-5-yl}methyl)pyrrolidin-2-one]	7.07 µM
O=C(CN1CCC(c2ccc(F)cc2)(c2ccc(F)cc2)C1=O)N1CCc2ccccc2C1 [Example 258, 1-[2-(3,4-dihydroisoquinolin-2(1H)-yl)-2-oxoethyl]-3,3-bis(4-fluorophenyl)pyrrolidin-2-one]	4.45 µM
O=C(CN1CCC(c2ccccc2)(c2ccccc2)C1=O)N[C@H]1CC[C@H]2CN(Cc3cccc(C(F)(F)F)c3)C[C@H]21 (relative stereo) [Example 56, 2-(2-oxo-3,3-diphenylpyrrolidin-1-yl)-N-{(3aS*,4S*,6aR*)-2-[3-(trifluoromethyl)benzyl]octahydrocyclopenta[c]pyrrol-4-yl}acetamide]	1.1 µM
O=C(CN1CCCC(c2ccccc2)(c2ccccc2)C1=O)N1CCC(c2ccc(F)cc2)(c2ccc(F)cc2)C1 [Example 205, 1-{2-[3,3-bis(4-fluorophenyl)pyrrolidin-1-yl]-2-oxoethyl}-3,3-diphenylpiperidin-2-one]	3.32 µM
O=C1N(CCN2CCN(c3ncccn3)CC2)CCCC1(c1ccc(F)cc1)c1ccc(F)cc1 [Example 136, 3,3-bis(4-fluorophenyl)-1-[2-(4-pyrimidin-2-ylpiperazin-1-yl)ethyl]piperidin-2-one]	3.32 µM
CC1(NC(=O)CN2CCC(c3ccccc3)(c3ccccc3)C2=O)CCN(Cc2ccccc2)C1 (stereo not shown) [Example 40, N-(1-benzyl-3-methylpyrrolidin-3-yl)-2-(2-oxo-3,3-diphenylpyrrolidin-1-yl)acetamide]	2.11 µM
O=C1N(Cc2nc(CCc3ccc(Cl)cc3)no2)CCC1(c1ccc(F)cc1)c1ccc(F)cc1 [Example 165, 1-({3-[2-(4-chlorophenyl)ethyl]-1,2,4-oxadiazol-5-yl}methyl)-3,3-bis(4-fluorophenyl)pyrrolidin-2-one]	3.39 µM

Continued by falling IC50, values first:

IC50	Structure (SMILES)
9.64 µM	O=C1N(S(=O)(=O)c2cccc(C(F)(F)F)c2)CCC1(c1ccc(F)cc1)c1ccc(F)cc1 [Example 145, 3,3-bis(4-fluorophenyl)-1-{[3-(trifluoromethyl)phenyl]sulfonyl}pyrrolidin-2-one]
4.77 µM	O=C1N(CCN2CCN(c3cccc(C(F)(F)F)c3)CC2)CCCC1(c1ccc(F)cc1)c1ccc(F)cc1 [Example 139, 3,3-bis(4-fluorophenyl)-1-(2-{4-[3-(trifluoromethyl)phenyl]piperazin-1-yl}ethyl)piperidin-2-one]
3.69 µM	O=C(CN1CCCC(c2ccccc2)(c2ccccc2)C1=O)N1CCC(c2ccc(F)cc2)CC1 [Example 244, 1-{2-[4-(4-fluorophenyl)piperidin-1-yl]-2-oxoethyl}-3,3-diphenylpiperidin-2-one]
3.41 µM	O=C(CN1CCCC(c2ccccc2)(c2ccccc2)C1=O)N1CCCC(c2ccccc2)(c2ccccc2)C1 [Example 71, 1-[2-(3,3-diphenylpiperidin-1-yl)-2-oxoethyl]-3,3-diphenylpiperidin-2-one]
2.97 µM	N#Cc1ccc(NC(=O)CN2CCC(c3ccc(F)cc3)(c3ccc(F)cc3)C2=O)nc1 [Example 252, 2-[3,3-bis(4-fluorophenyl)-2-oxopyrrolidin-1-yl]-N-(5-cyanopyridin-2-yl)acetamide]
2.33 µM	O=C(CN1CCC(c2ccccc2)(c2ccccc2)C1=O)NCc1cccc(C(F)(F)F)c1 [Example 7, 2-(2-oxo-3,3-diphenylpyrrolidin-1-yl)-N-[3-(trifluoromethyl)benzyl]acetamide]
2.2 µM	O=C(CN1CCCC(c2ccccc2)C1=O)N1CCN(Cc2ccc(Cl)cc2Cl)CC1 (stereo not shown) [Example 94, 1-{2-[4-(2,4-dichlorobenzyl)piperazin-1-yl]-2-oxoethyl}-3-phenylpiperidin-2-one]
2.1 µM	O=C(CN1CCC(c2ccccc2)(c2ccccc2)C1=O)NC(c1ccccc1)C1CC1 (stereo not shown) [Example 9, N-[cyclopropyl(phenyl)methyl]-2-(2-oxo-3,3-diphenylpyrrolidin-1-yl)acetamide]
2.02 µM	O=C(CN1CCCC(c2ccccc2)(c2ccccc2)C1=O)N1CCC(n2nnc3cc(C(F)(F)F)ccc32)CC1 [Example 164, 1-(2-oxo-2-{4-[5-(trifluoromethyl)-1H-1,2,3-benzotriazol-1-yl]piperidin-1-yl}ethyl)-3,3-diphenylpiperidin-2-one]
1.77 µM	CC(C)(C)OC(=O)N1CCN(CC(=O)N2CCN(C(c3ccccc3)c3ccccc3)CC2)C(=O)C1c1ccccc1 (stereo not shown) [Example 101, tert-butyl 4-[2-(4-benzhydrylpiperazin-1-yl)-2-oxoethyl]-3-oxo-2-phenylpiperazine-1-carboxylate]
1.74 µM	O=C(CN1CCC(c2ccc(F)cc2)(c2ccc(F)cc2)C1=O)NC1CN(Cc2ccc(C(F)(F)F)c(F)c2)C1 [Example 239, 2-[3,3-bis(4-fluorophenyl)-2-oxopyrrolidin-1-yl]-N-{1-[3-fluoro-4-(trifluoromethyl)benzyl]azetidin-3-yl}acetamide]
1.23 µM	O=C1N(CCCN2CCN(c3cccc(C(F)(F)F)c3)CC2)CCCC1(c1ccc(F)cc1)c1ccc(F)cc1 [Example 142, 3,3-bis(4-fluorophenyl)-1-(3-{4-[3-(trifluoromethyl)phenyl]piperazin-1-yl}propyl)piperidin-2-one]
0.89 µM	O=C(CN1CCC(c2ccccc2)(c2ccccc2)C1=O)NC1(c2ccccc2)CCC1 [Example 11, 2-(2-oxo-3,3-diphenylpyrrolidin-1-yl)-N-(1-phenylcyclobutyl)acetamide]
0.71 µM	O=C(CN1CCC(c2ccccc2)(c2ccccc2)C1=O)N1CCC(C(O)(c2ccc(F)cc2)c2ccc(F)cc2)CC1 [Example 32, 1-(2-{4-[bis(4-fluorophenyl)(hydroxy)methyl]piperidin-1-yl}-2-oxoethyl)-3,3-diphenylpyrrolidin-2-one]
